{
  "source": "patent US20150273086A1",
  "about": "“HYPERPOLARIZED 2-OXOGLUTARATE AS METABOLIC AGENT IN MR” (BRACCO IMAGING S.P.A., priority 2012, published 2015)",
  "key": {"[1]": {"system": "prostate cancer cells (PC-3)", "details": "3.5 mM substrate, aspartate added, 14.1 T, 37° C., FIG. 3", "description": "10 million prostate cancer cells (PC-3) were harvested and redissolved in 500 μl phosphate buffer (PBS).\nThe acquisition was started just before injection of the hyperpolarized substrate."}, "[2]": {"system": "liver cancer cells (Morris7777)", "details": "3.5 mM total substrate, aspartate added, FIG. 13", "description": "10 million liver cancer cells (Morris7777), were harvested and redissolved in 500 μl phosphate buffer (PBS).\nThe acquisition was started just before injection of the hyperpolarized substrates."}, "[3]": {"system": "PC-3, HEP-G2, PNT-1A and THLE-3 cells", "test": "UV assay of uptake and conversion of 2-oxoglutarate to glutamate in cancerous and normal cells", "type": "cell-based, human", "details": "20 mM 2-oxoglutarate, 20 mM aspartate as co-substrate, 30 minutes at 37° C., FIG. 2", "description": "A combination of cellular uptake of 2-oxoglutarate and conversion of 2-oxoglutarate to glutamate was measured using a UV assay. Following incubation of the cells with 2-oxoglutarate for 30 minutes at 37° C. the cells were disrupted and a perchloric acid extract was made to precipitate the enzymes, whereafter the concentration of the formed product, glutamate, was measured.\nThe following UV assay for measuring glutamate production was applied.\nThe assay consists of two parts, as shown in the reaction scheme below. In the first part, glutamate is generated by incubating 0.5 million (0.5*10^6) viable cells with 20 mM 2-oxoglutarate and 20 mM aspartate for 30 minutes at 37° C. In the second part the glutamate concentration is measured using commercially available GDH (glutamate dehydrogenase) enzyme to generate 2-oxoglutarate and NADH. The latter is an unfavorable reaction and the reaction is therefore forced in this direction by trapping of the produced NADH in the INT (Iodonitrotetrazolium) reaction.\nReaction scheme for the assay determining glutamate concentration from cells incubated with 2-oxoglutarate. GDHcell refer to the cellular presence of glutamate dehydrogenase which will convert 2-oxoglutarate to glutamate when 2-oxoglutarate is incubated with whole cells in the first part of the assay. […]"}, "aspartate transaminase": {"system": "aspartate transaminase", "test": "Aspartate transaminase conversion of hyperpolarized 1-13C-2-oxoglutarate to 1-13C-glutamate with or without co-substrate", "experimental": "The sample was dissolved in 5 ml phosphate buffer (40 mM, pH 7.3) with addition of NaOH (8 μl, 12 M). The pH after dissolution was 7.3. From this hyperpolarized solution aliquots of 300 μl were taken and added one at a time to 5 mm NMR tubes (1-3) kept at 37° C. containing the following:\nTube 1: 2.5 μl (3.2 U) aspartate transaminase+100 μl (120 mM) glutamate+200 μl 40 mM phosphate buffer pH.7.3.\nTube 2: 2.5 μl (3.2 U) aspartate transaminase+100 μl (120 mM) aspartate+200 μl 40 mM phosphate buffer pH.7.3.\nTube 3: 2.5 μl (3.2 U) aspartate transaminase+300 μl (40 mM) phosphate buffer pH.7.3.\nA low pulse angle experiment was performed (15 degree pulses every 0.5 s for 12 s). Following the end of the experiment the procedure was repeated for tube 2 and tube 3."}, "[4]": {"test": "Hydrolysis of hyperpolarized 2-oxoglutaric-(1)-ethyl ester upon dissolution (13C-NMR)", "type": "physicochemical", "details": "after 15 s; dissolved in D2O with added NaOH, pH 11", "description": "2-oxoglutaric-(1)-ethyl ester (31 mg, 0.18 mmol) was added to an Eppendorf tube and mixed with 0.7 mg (0.45 μmol) of the carboxylic acid form of the finland radical (tris{8-carboxyl-2,2,6,6-tetramethyl-benzo(1,2-d:4,5-dS)bis(1,3)dithiole-4-yl}methyl, carboxylic acid form). […]. The ethyl ester formed a glass upon rapid freezing. […] […]. The sample was hyperpolarized for 90 min.\nThe sample was dissolved in 6 ml D2O with added NaOH (35 μl of 10 M). […] The ester was hydrolyzed up to at least 95%, after 15 s. The 2-oxoglutaric-(1)-ethyl ester was easily hydrolyzed to 2-oxoglutarate during the time of the experiment."}, "[5]": {"system": "EL-4 xenograft mouse lymphoma model", "test": "In vivo DNP-MR glutamate signal pre versus post etoposide treatment", "design": "species or system C57BL/6 mouse", "details": "single dose Etoposide 2 mg/mouse i.p.; average over 4 mice, FIG. 8", "description": "EL-4 xenograft mouse lymphoma model has been selected as test system to verify the ability of detecting tumour response to a DNA targeting therapy. […].\nFive million EL-4 cells were suspended in 0.1 mL Roswell Park Memorial Institute (RPMI-1640) medium and subcutaneously injected in the flank of 7 weeks old female C57BL/6 mouse.\nDNP experiment has been performed 9-10 days after cells inoculation pre Etoposide treatment and 10-11 days after cells inoculation post single dose Etoposide treatment (a dose of 2 mg/mouse has been i.p. administered by injection of 300 μL of Eposin 20 mg/mL diluted 1:3 in saline solution). DNP sample has been prepared as describes in example 6."}, "Morris7777 cells [6]": {"system": "Morris7777 cells", "test": "UV assay of 2-oxoglutarate conversion in treated Morris7777 cells", "type": "cell-based, rat", "details": "Etoposide 15 μM 24 hours, Sorafenib 0.5 μM 48 hours, FIG. 10", "description": "(§1) The UV assay and conditions used in example 4 were applied. Prior to harvesting the cells have been treated with MS-275, resveratrol, etoposide, or Sorafenib, as follows:\n(§2) Morris7777 cells: Etoposide 15 μM, for 24 hours; Sorafenib 0.5 μM for 48 hours.\n(§3) Uptake and conversion of 2-oxoglutarate were measured as described in example 4."}, "[7]": {"test": "Trypan blue staining, total cell number and viability of treated Morris7777 cells", "type": "cell-based, rat", "details": "rat, Etoposide 15 μM 24 hours, Sorafenib 0.5 μM 48 hours", "description": "as §2\n(§4) The treatment protocols were evaluated with a standard cellular method, trypan blue staining which provide the total cell numbers and cell viability."}, "Morris7777 cells [8]": {"system": "Morris7777 cells", "test": "Trypan blue staining, total cell number and viability of treated Morris7777 cells", "type": "cell-based, rat", "details": "Etoposide 15 μM 24 hours, Sorafenib 0.5 μM 48 hours", "description": "as §2, §4"}, "PC-3 cells [9]": {"system": "PC-3 cells", "test": "UV assay of 2-oxoglutarate conversion in treated PC-3 cells", "type": "cell-based, human", "details": "MS-275 0.5 μM 48 hours, Resveratrol 50 μM 48 hours, FIG. 9", "description": "as §1\nPC-3 cells: MS-275 0.5 μM, for 48 hours; Resveratrol 50 μM for 48 hours.\nas §3"}, "PC-3 cells [10]": {"system": "PC-3 cells", "test": "Trypan blue staining, total cell number and viability of treated PC-3 cells", "type": "cell-based, human", "details": "MS-275 0.5 μM 48 hours, Resveratrol 50 μM 48 hours", "description": "(§5) PC-3 cells: MS-275 0.5 μM, for 48 hours; Resveratrol 50 μM for 48 hours. The treatment protocols were evaluated with a standard cellular method, trypan blue staining which provide the total cell numbers and cell viability."}, "[11]": {"test": "Trypan blue staining, total cell number and viability of treated PC-3 cells", "type": "cell-based, human", "details": "human, MS-275 0.5 μM 48 hours, Resveratrol 50 μM 48 hours", "description": "as §5"}},
  "data": [
    {"molecule": "1-^13C-2-oxoglutaric acid [hyperpolarized 1-^13C-2-oxoglutarate]", "values": [
      {"measurement": "uptake and conversion into hyperpolarized 1-13C-glutamate", "setting": "[1]", "value": "taken up by PC-3 cells and converted into hyperpolarized 1-^13C-glutamate"},
      {"measurement": "produced hyperpolarized 1-13C-glutamate signal relative to 1-13C-lactate signal from hyperpolarized 1-13C-pyruvate", "setting": "[2]", "value": "more than 2 times"}
    ]},
    {"molecule": "O=C(O)CCC(=O)C(=O)O", "note": "[2-oxoglutarate]", "values": [
      {"measurement": "conversion of 2-oxoglutarate in glutamate", "setting": "[3]", "value": "higher in carcinoma cells than in normal cells"},
      {"measurement": "formation of glutamate product by aspartate transaminase", "setting": "aspartate transaminase; no co-substrate (tube 3)", "value": "no product can be formed"},
      {"measurement": "conversion to glutamate by aspartate transaminase, aspartate versus glutamate as co-substrate", "setting": "aspartate transaminase; tubes 1 and 2, 37° C., FIG. 1", "value": "the two amino acids are almost equally effective"}
    ]},
    {"molecule": "CCOC(=O)C(=O)CCC(=O)O", "note": "[2-oxoglutaric-(1)-ethyl ester]", "values": [
      {"measurement": "ester hydrolyzed to 2-oxoglutarate", "setting": "[4]", "value": "at least 95%"}
    ]},
    {"molecule": "COc1cc([C@@H]2c3cc4c(cc3[C@@H](O[C@@H]3O[C@@H]5CO[C@@H](C)O[C@H]5[C@H](O)[C@H]3O)[C@H]3COC(=O)[C@H]23)OCO4)cc(OC)c1O", "note": "[Etoposide, etoposide]", "values": [
      {"measurement": "signal of hyperpolarized 1-13C-glutamate post therapy compared to pre therapy", "setting": "[5]", "value": "increases two times"},
      {"measurement": "conversion of 2-oxoglutarate to glutamate in comparison to untreated cells (control)", "setting": "Morris7777 cells [6]", "value": "higher"},
      {"measurement": "viability", "setting": "[7]", "value": "< 85", "unit": "%"},
      {"measurement": "Cell number", "setting": "Morris7777 cells [8]", "value": 5.5, "unit": "million"}
    ]},
    {"molecule": "Nc1ccccc1NC(=O)c1ccc(CNC(=O)OCc2cccnc2)cc1", "note": "[MS-275]", "values": [
      {"measurement": "conversion of 2-oxoglutarate to glutamate in comparison to untreated cells (control)", "setting": "PC-3 cells [9]", "value": "no change"},
      {"measurement": "Cell number", "setting": "PC-3 cells [10]", "value": 4.5, "unit": "million"}
    ]},
    {"molecule": "Oc1ccc(C=Cc2cc(O)cc(O)c2)cc1", "note": "[Resveratrol]", "values": [
      {"measurement": "conversion of 2-oxoglutarate to glutamate in comparison to untreated cells (control)", "setting": "PC-3 cells [9]", "value": "higher"},
      {"measurement": "viability at 48 h", "setting": "[11]", "value": "> 94", "unit": "%"},
      {"measurement": "Cell number", "setting": "PC-3 cells [10]", "value": 1.7, "unit": "million"}
    ]},
    {"molecule": "CNC(=O)c1cc(Oc2ccc(NC(=O)Nc3ccc(Cl)c(C(F)(F)F)c3)cc2)ccn1", "note": "[Sorafenib, sorafenib]", "values": [
      {"measurement": "conversion of 2-oxoglutarate to glutamate in comparison to untreated cells (control)", "setting": "Morris7777 cells [6]", "value": "no change"},
      {"measurement": "viability", "setting": "[7]", "value": "> 89", "unit": "%"},
      {"measurement": "Cell number", "setting": "Morris7777 cells [8]", "value": 8, "unit": "million"}
    ]}
  ]
}
